Assay results: US11957690B2, “Chromogenic beta-lactamase substrate” (BROWN UNIVERSITY, priority 2018, dated 2024)
In brackets after ≈: the same amount, converted by molar mass. Values belong to the compound of their own block, whether it stands above or below them.

Experiments:
[1] = test system: gram-negative species; conditions: cited from earlier work
[2] = test system: Staphylococcus aureus; conditions: cited from earlier work
[3] = test system: penicillinase; assay: Color change / absorbance spectrum in penicillinase; assay type: biochemical; conditions: for Absorbance/time response in penicillinase, comparison with CENTA: FIG. 5
Description: FIG. 3 is a set of absorbance spectrum charts showing the color change of Compound 1 (ANT) in the presence of a β-lactamase came with a definite shift in Compound 1 (ANT) absorbance spectrum upon adding penicillinase, thus cleaving the β-lactam ring and expelling the 3′-leaving group. […] As the β-lactam ring is cleaved by the enzymes, the peak at 260 nm disappears.
FIG. 5 is a comparison between Compound 1 (ANT) response and CENTA response.
FIG. 6 is a chart showing deprotected ANT-maleimide in penicillinase, measuring the absorbance of conjugate at different time points.

[4] = test system: E. cloacae; assay: Microdilution assay, antibacterial efficacy (MIC); assay type: cell-based; conditions: Enterobacter cloacae, Gram −, βL producing Yes, 18 h, 37° C.
[5] = test system: β-lactamases from Bacillus cereus, Pseudomonas aeruginosa, and Enterobacter cloacae; assay: Michaelis-Menten kinetics of hydrolysis; assay type: biochemical; conditions: compared with commercially available chromogenic β-lactamase substrates
Method: To further characterize substrate-enzyme relationships between Substrate Compound 2 and β-lactamases, kinetic parameters were measured using Michaelis-Menten kinetics.
Parameters were determined for Substrate Compound 2 and commercially available chromogenic β-lactamase substrates CENTA and nitrocefin as comparisons, using different β-lactamases. All kinetic experiments were performed for concentrations of Substrate Compound 2 ranging from 0.025-0.2 mg/mL with 10% DMSO, and concentrations of 4 ranging from 1.5-12.1 mg/mL in 0.15 M sodium phosphate buffer pH 7 at 37° C. Hydrolysis of Substrate Compound 2 was measured by continuously recording the change in absorbance at 410 nm on a BioTekQ® Cytation3 plate reader. The kM, kcat, and VMax values were calculated through the initial velocities and the direct fitting of the Michaelis-Menten curve to the data through GraphPad Prism software.

[6] = test system: S. aureus 25923; assay: Microdilution assay, antibacterial efficacy (MIC); assay type: cell-based; conditions: Staphylococcus aureus, Gram +, βL producing No, 18 h, 37° C.
Method: (§1) The antibacterial effect of Substrate Compound 2 was tested against Staphylococcus aureus, Escherichia coli, MRSA, and Pseudomonas aeruginosa in a microdilution assay. Substrate Compound 2 was dissolved in dimethyl sulfoxide at a concentration of 2.56 mg/mL and diluted to a concentration of 256 μg/mL in sterile phosphate-buffered saline. Substrate Compound 2 solutions and a control of 10% dimethyl sulfoxide in cation-adjusted Mueller Hinton broth (CMHB) or tryptic soy broth (TSB) were serially diluted 1:2 with cation-adjusted Mueller Hinton broth or tryptic soy broth in a 96-well plate. Cation-adjusted Muller-Hinton broth (CMHB) is commercially available from MilliporeSigma (Billerica, MA, USA).
(§2) Bacteria in its log phase was added to the wells at a final concentration of 10^5 CFU/mL. Positive controls of bacteria cultured in only media and negative controls of cation-adjusted Mueller Hinton broth or tryptic soy broth without bacteria were included. After eighteen hours of shaking at 100 rpm at 37° C., the optical density at 600 nm (OD600) was measured using a BioTekQ® normalized bacteria density was calculated using equation 1: […]

[7] = test system: S. aureus 29213; assay: Microdilution assay, antibacterial efficacy (MIC); assay type: cell-based; conditions: Staphylococcus aureus, Gram +, βL producing Yes, 18 h, 37° C.
Method: as §1, §2

[8] = test system: E. coli 25922; assay: Microdilution assay, antibacterial efficacy (MIC); assay type: cell-based; conditions: Escherichia coli, Gram −, βL producing Yes, 18 h, 37° C.
Method: as §1, §2

[9] = test system: P. aeruginosa PA01; assay: Microdilution assay, antibacterial efficacy (MIC); assay type: cell-based; conditions: Pseudomonas aeruginosa, Gram −, βL producing Yes, 18 h, 37° C.
Method: as §1, §2

[10] = test system: B. cereus; assay: Microdilution assay, antibacterial efficacy (MIC); assay type: cell-based; conditions: Bacillus cereus, Gram +, βL producing Yes, 18 h, 37° C.
[11] = test system: MRSA MW2; assay: Microdilution assay, antibacterial efficacy (MIC); assay type: cell-based, methicillin-resistant Staphylococcus aureus; conditions: Staphylococcus aureus, Gram +, βL producing Yes, 18 h, 37° C.
Method: as §1, §2

[12] = Aqueous solubility; assay type: physicochemical
[13] = molecular target: T1, β-lactamase from Bacillus cereus (Bacillus cereus, UniProt P04190); assay type: biochemical
T1 construct: purchased MilliporeSigma
Method: (§3) Substrate Compound 2 was tested with a class B β-lactamase from Bacillus cereus (Bebrone et al., Antimicrobial Agents Chemother., 45, 1868-1871 (2001)). Substrate Compound 2 was tested with class C β-lactamases (from Pseudomonas aeruginosa (Mirsalehian et al., Iranian J. Microbiol., 6, 306-310 (2014)) and β-lactamase from Enterobacter cloacae (Seeberg, Tolxdorff-Neutzling & Wiedemann, Antimicrobial Agents Chemother., 23, 918-925 (1983)). These bacteria are present in many infections, including wounds. See, Bodey et al., Clinical Infectious Diseases, 5, 279-313 (2011) and Davin-Regli & Pages, Frontiers in Microbiology, 6, 392 (2015).
The inventors measured the concentration-dependent absorbance shift in a spectral scan of Substrate Compound 2 with different concentrations (U/mL) of β-lactamase from Bacillus cereus or in phosphate-buffered saline after 45 minutes at 37° C. The absorbance signal at 410 nm increased to a maximum as a function of β-lactamase concentration. The inventors also performed these measurements for β-lactamase from Pseudomonas aeruginosa and Enterobacter cloacae.
96-well plate. […] The samples of Substrate Compound 2 in β-lactamases from Bacillus cereus (200 U/mL in M sodium phosphate buffer, pH 7) were incubated for thirty minutes at 37° C. before the absorbance of the solution from 230 to 650 nm was measured using a BioTekQ® […]

[14] = molecular target: T2, β-lactamase from Pseudomonas aeruginosa (Pseudomonas aeruginosa, UniProt P24735); assay: Colorimetric / UV-vis response to β-lactamase; assay type: biochemical; conditions: 10% DMSO, 37° C.
T2 construct: purchased MilliporeSigma
Method: as §3
(§4) 96-well plate. Substrate Compound 2 was dissolved in DMSO at a concentration of two mg/ml. Fifteen μL of Substrate Compound 2 was added to a well of a 96-well plate. […] The samples of Substrate Compound 2 in β-lactamases from Bacillus cereus (200 U/mL in M sodium phosphate buffer, pH 7) were incubated for thirty minutes at 37° C. before the absorbance of the solution from 230 to 650 nm was measured using a BioTekQ®
(§5) Cytation3 plate reader. For the samples in Pseudomonas aeruginosa (50 U/mL in 0.15 M sodium phosphate buffer, pH 7), the absorbance was measured after ninety minutes at 37° C. […] For the samples in Enterobacter cloacae (1 U/ml in M sodium phosphate buffer, pH 7), the absorbance was measured after three hours at 37° C. […]

[15] = molecular target: T3, β-lactamase from Enterobacter cloacae (Enterobacter cloacae, UniProt P05364); assay: Colorimetric / UV-vis response to β-lactamase; assay type: biochemical; conditions: 10% DMSO, 37° C.
T3 construct: purchased MilliporeSigma
Method: as §3, §4, §5

T1 sequence (P04190 31-257): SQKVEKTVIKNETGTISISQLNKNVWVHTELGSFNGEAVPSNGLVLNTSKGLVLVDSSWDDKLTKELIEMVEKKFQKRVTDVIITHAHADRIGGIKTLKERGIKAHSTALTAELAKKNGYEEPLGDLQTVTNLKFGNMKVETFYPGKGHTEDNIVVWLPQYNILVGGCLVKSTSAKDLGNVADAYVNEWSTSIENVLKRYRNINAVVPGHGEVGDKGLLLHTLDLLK
T2 sequence (P24735 27-397): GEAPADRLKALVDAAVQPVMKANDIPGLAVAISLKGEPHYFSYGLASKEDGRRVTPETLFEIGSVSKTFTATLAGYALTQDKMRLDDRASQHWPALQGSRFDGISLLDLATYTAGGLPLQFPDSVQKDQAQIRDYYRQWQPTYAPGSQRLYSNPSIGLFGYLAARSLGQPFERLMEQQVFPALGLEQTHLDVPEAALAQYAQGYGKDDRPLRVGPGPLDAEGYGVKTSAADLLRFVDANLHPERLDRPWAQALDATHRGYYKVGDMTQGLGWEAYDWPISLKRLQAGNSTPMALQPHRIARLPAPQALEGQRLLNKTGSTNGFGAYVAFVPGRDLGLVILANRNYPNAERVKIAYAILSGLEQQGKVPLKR
T3 sequence (P05364 21-381): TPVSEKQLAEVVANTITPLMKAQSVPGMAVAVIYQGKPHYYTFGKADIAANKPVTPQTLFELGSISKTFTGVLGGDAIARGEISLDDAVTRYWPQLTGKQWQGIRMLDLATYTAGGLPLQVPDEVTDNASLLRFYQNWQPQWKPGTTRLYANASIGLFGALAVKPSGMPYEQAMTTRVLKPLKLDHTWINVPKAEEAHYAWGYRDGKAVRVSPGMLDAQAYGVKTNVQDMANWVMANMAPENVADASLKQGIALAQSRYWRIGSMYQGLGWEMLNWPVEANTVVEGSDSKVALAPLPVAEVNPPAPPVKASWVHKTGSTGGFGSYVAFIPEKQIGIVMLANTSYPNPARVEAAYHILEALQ

Compound: O=C(Cc1cccs1)N[C@@H]1C(=O)N2C(C(=O)O)=C(CSc3ccc([N+](=O)[O-])c(C(=O)O)c3)CS[C@H]12 [CENTA]
Antibacterial activity against gram-negative species [1]: not antibacterial
Antibacterial activity against Staphylococcus aureus [2]: some activity
Absorbance/time response in penicillinase, comparison with CENTA [3]: reaches its maximum absorbance at a faster rate than Compound 1 (ANT)

Color change in penicillinase compared to PBS ([3]; 1.5 hours at 37° C.): showed a significant color change
Color change of the conjugate incubated in penicillinase or phosphate-buffered saline ([3]; Example 1, protected conjugate of ACLE and NBT): does not undergo a color change
Absorbance/time response in penicillinase, comparison with CENTA [3]: behave similarly
Compound: COc1ccc(COC(=O)C2=C(CSc3ccc([N+](=O)[O-])cc3)CSC3C(N)C(=O)N23)cc1 (stereo not drawn) [Compound 1]
Shift of maximum absorbance peak on cleavage by penicillinase ([3]; 1.5 hours at 37° C.): maximum absorbance peak shifts from 345 nm to 410 nm

Compound: CN(C)c1ccc(N=Nc2cccc[n+]2CC2=C(C(=O)[O-])N3C(=O)[C@@H](NC(=O)Cc4cccs4)[C@H]3SC2)cc1 [PADAC]
Antibacterial activity against gram-negative species [1]: not antibacterial
Antibacterial activity against Staphylococcus aureus [2]: some activity

Compound: NC1C(=O)N2C(C(=O)O)=C(CSc3ccc([N+](=O)[O-])cc3)CSC12 (stereo not drawn) [Substrate Compound 2]
MIC [4]: > 128 µg/mL
Kinetic rate of hydrolysis by β-lactamases [5]: kinetic rate similar to commercially available chromogenic β-lactamase substrates
MIC [6]: 8 µg/mL (≈ 21.8 µM)
MIC [7]: 8 µg/mL (≈ 21.8 µM)
MIC [8]: > 128 µg/mL
MIC [9]: > 128 µg/mL
MIC [10]: > 128 µg/mL
MIC [11]: > 128 µg/mL
Aqueous solubility [12]: not soluble in aqueous conditions
Lower detection limit of β-lactamase ([13]; absorbance at 410 nm, 45 minutes at 37° C., β-lactamase 0.78-400 U/mL): approximately 3.12 U/mL
Color change when mixed with β-lactamase ([13]; β-lactamase from Bacillus cereus, 10% DMSO, 37° C.): changed color from clear to yellow
Color change when mixed with β-lactamase [14]: changed color from clear to yellow
Color change when mixed with β-lactamase [15]: changed color from clear to yellow

Compound: O=C(Cc1cccs1)N[C@@H]1C(=O)N2C(C(=O)O)=C(/C=C/c3ccc([N+](=O)[O-])cc3[N+](=O)[O-])CS[C@H]12 [nitrocefin]
Antibacterial activity against gram-negative species [1]: not antibacterial
Antibacterial activity against Staphylococcus aureus [2]: some activity
